Patent US20070004660A1, “Synergistic Modulation of Flt3 Kinase Using Alkylquinolines and Alkylquinazolines” (priority 2005, published 2007)

Tested on: MV4-11 cells
Assay: Inhibition of MV4-11 cell proliferation (CellTiterGlo, 72 h)
Assay type: cell-based
Conditions: Homo sapiens; 72 h growth inhibition; uncertainty ±20%

SMILES	IC50
CCN1CCN(c2ccc3c(C4CCN(C(=O)Nc5ccc(N6CCOCC6)cc5)CC4)ncnc3c2)CC1 [Example 136, 4-[7-(4-Ethyl-piperazin-1-yl)-quinazolin-4-yl]-piperidine-1-carboxylic acid (4-morpholin-4-yl-phenyl)-amide]	163 nM
O=C(Nc1ccc(N2CCCC2)cc1)N1CCC(c2ncnc3cc(N4CCSCC4)ccc23)CC1 [Compound 182, 4-(7-Thiomorpholin-4-yl-quinazolin-4-yl)-piperidine-1-carboxylic acid (4-pyrrolidin-1-yl-phenyl)-amide]	107 nM
O=C(Nc1ccc(N2CCCC2)cc1)N1CCC(c2ncnc3cc(-n4ccnc4)ccc23)CC1 [Compound 180, 4-(7-Imidazol-1-yl-quinazolin-4-yl)-piperidine-1-carboxylic acid (4-pyrrolidin-1-yl-phenyl)-amide]	20 nM
O=C(Nc1ccc(N2CCOCC2)cc1)N1CCC(c2ncnc3cc(N4CCNC4=O)ccc23)CC1 [Compound 197, 4-[7-(2-Oxo-imidazolidin-1-yl)-quinazolin-4-yl]-piperidine-1-carboxylic acid (4-morpholin-4-yl-phenyl)-amide]	143 nM
O=C(Nc1ccc(N2CCCC2)cc1)N1CCC(c2ncnc3cc(OCCCN4CCC[C@H]4CO)ccc23)CC1 [Example 161, (S)-4-{7-[3-(2-Hydroxymethyl-pyrrolidin-1-yl)-propoxy]-quinazolin-4-yl}-piperidine-1-carboxylic acid (4-pyrrolidin-1-yl-phenyl)-amide]	13 nM
O=C(Nc1ccc(N2CCOCC2)cc1)N1CCC(c2ncnc3cc(N4CC[C@H](O)C4)ccc23)CC1 [Example 128, 4-[7-(3-Hydroxy-pyrrolidin-1-yl)-quinazolin-4-yl]-piperidine-1-carboxylic acid (4-morpholin-4-yl-phenyl)-amide]	16 nM
O=C(Nc1ccc(N2CCCC2)cc1)N1CCC(c2ncnc3cc(Oc4cccnc4)ccc23)CC1 [Example 174, 4-[7-(Pyridin-3-yloxy)-quinazolin-4-yl]-piperidine-1-carboxylic acid (4-pyrrolidin-1-yl-phenyl)-amide]	214 nM
O=C(Nc1ccc(N2CCOCC2)cc1)N1CCC(c2ncnc3cc(N4CCC(F)CC4)ccc23)CC1 [Compound 196, 4-[7-(4-Fluoro-piperidin-1-yl)-quinazolin-4-yl]-piperidine-1-carboxylic acid (4-morpholin-4-yl-phenyl)-amide]	75 nM
O=C(Nc1ccc(N2CCOCC2)cc1)N1CCC(c2ncnc3cc(OCCN4CCOC4=O)ccc23)CC1 [Example 148, 4-{7-[2-(2-Oxo-oxazolidin-3-yl)-ethoxy]-quinazolin-4-yl}-piperidine-1-carboxylic acid (4-morpholin-4-yl-phenyl)-amide]	66 nM
O=C(Nc1ccc(N2CCOCC2)cc1)N1CCC(c2ncnc3cc(N4CCC[C@H]4CO)ccc23)CC1 [Example 139, (S)-4-[7-(2-Hydroxymethyl-pyrrolidin-1-yl)-quinazolin-4-yl]-piperidine-1-carboxylic acid (4-morpholin-4-yl-phenyl)-amide]	387 nM
O=C(Nc1ccc(N2CCOCC2)cc1)N1CCC(c2ncnc3cc(OCCN4CCC[C@H]4CO)ccc23)CC1 [Example 153, (S)-4-{7-[2-(2-Hydroxymethyl-pyrrolidin-1-yl)-ethoxy]-quinazolin-4-yl}-piperidine-1-carboxylic acid (4-morpholin-4-yl-phenyl)-amide]	395 nM
CS(=O)(=O)CCNc1ccc2c(C3CCN(C(=O)Nc4ccc(N5CCOCC5)cc4)CC3)ncnc2c1 [Example 146, 4-[7-(2-Methanesulfonyl-ethylamino)-quinazolin-4-yl]-piperidine-1-carboxylic acid (4-morpholin-4-yl-phenyl)-amide]	322 nM
CC(=O)N1CC[C@@H](Oc2ccc3c(C4CCN(C(=O)Nc5ccc(N6CCCC6)cc5)CC4)ncnc3c2)C1 [Example 154, (R)-4-[7-(1-Acetyl-pyrrolidin-3-yloxy)-quinazolin-4-yl]-piperidine-1-carboxylic acid (4-pyrrolidin-1-yl-phenyl)-amide]	63 nM
CN1CCN(CCOc2ccc3c(C4CCN(C(=O)Nc5ccc(N6CCCC6)cc5)CC4)ncnc3c2)CC1 [Example 157, 4-{7-[2-(4-Methyl-piperazin-1-yl)-ethoxy]-quinazolin-4-yl}-piperidine-1-carboxylic acid (4-pyrrolidin-1-yl-phenyl)-amide]	9 nM
O=C(Nc1ccc(N2CCCC2)cc1)N1CCC(c2ncnc3cc(N4CCCC4)ccc23)CC1 [Compound 179, 4-(7-Pyrrolidin-1-yl-quinazolin-4-yl)-piperidine-1-carboxylic acid (4-pyrrolidin-1-yl-phenyl)-amide]	34 nM
CNC(=O)C1CCN(c2ccc3c(C4CCN(C(=O)Nc5ccc(N6CCCC6)cc5)CC4)ncnc3c2)CC1 [Example 155, 4-[7-(4-Carboxylic acid methylamide-piperidin-1-yl)-quinazolin-4-yl]-piperidine-1-carboxylic acid (4-pyrrolidin-1-yl-phenyl)-amide]	13 nM
O=C(Nc1ccc(N2CCCC2)cc1)N1CCC(c2ncnc3cc(N4CCN(c5ccncc5)CC4)ccc23)CC1 [Compound 194, 4-[7-(4-Pyridin-4-yl-piperazin-1-yl)-quinazolin-4-yl]-piperidine-1-carboxylic acid (4-pyrrolidin-1-yl-phenyl)-amide]	0.4 nM

SMILES	IC50
CS(=O)(=O)N1CCN(c2ccc3c(C4CCN(C(=O)Nc5ccc(N6CCCC6)cc5)CC4)ncnc3c2)CC1 [Example 167, 4-[7-(4-Methanesulfonyl-piperazin-1-yl)-quinazolin-4-yl]-piperidine-1-carboxylic acid (4-pyrrolidin-1-yl-phenyl)-amide]	21 nM
COCCN1CCN(c2ccc3c(C4CCN(C(=O)Nc5ccc(N6CCCC6)cc5)CC4)ncnc3c2)CC1 [Compound 186, 4-{7-[4-(2-Methoxy-ethyl)-piperazin-1-yl]-quinazolin-4-yl}-piperidine-1-carboxylic acid (4-pyrrolidin-1-yl-phenyl)-amide]	15 nM
O=C(Nc1ccc(N2CCCC2)cc1)N1CCC(c2ncnc3cc(N4CCOC4=O)ccc23)CC1 [Example 176, 4-[7-(2-Oxo-oxazolidin-3-yl)-quinazolin-4-yl]-piperidine-1-carboxylic acid (4-pyrrolidin-1-yl-phenyl)-amide]	8 nM
CS(=O)(=O)N1CC(Oc2ccc3c(C4CCN(C(=O)Nc5ccc(N6CCCC6)cc5)CC4)ncnc3c2)C1 [Example 171, 4-[7-(1-Methanesulfonyl-azetidin-3-yloxy)-quinazolin-4-yl]-piperidine-1-carboxylic acid (4-pyrrolidin-1-yl-phenyl)-amide]	185 nM
CN1CCN(c2ccc3c(C4CCN(C(=O)Nc5ccc(N6CCCC6)nc5)CC4)ncnc3c2)CC1 [Example 160, 4-[7-(4-Methyl-piperazin-1-yl)-quinazolin-4-yl]-piperidine-1-carboxylic acid (6-pyrrolidin-1-yl-pyridin-3-yl)-amide]	67 nM
CN(C)[C@@H]1CCN(c2ccc3c(C4CCN(C(=O)Nc5ccc(N6CCCC6)cc5)CC4)ncnc3c2)C1 [Example 149, (R)-4-[7-(3-Dimethylamino-pyrrolidin-1-yl)-quinazolin-4-yl]-piperidine-1-carboxylic acid (4-pyrrolidin-1-yl-phenyl)-amide]	46 nM
O=C(Nc1ccc(N2CCOCC2)cc1)N1CCC(c2ncnc3cc(OCCCN4CCOCC4)ccc23)CC1 [Example 133, 4-[7-(3-Morpholin-4-yl-propoxy)-quinazolin-4-yl]-piperidine-1-carboxylic acid (4-morpholin-4-yl-phenyl)-amide]	58 nM
O=C(Nc1ccc(N2CCCC2)cc1)N1CCC(c2ncnc3cc(N4CCN(CCO)CC4)ccc23)CC1 [Compound 185, 4-{7-[4-(2-Hydroxy-ethyl)-piperazin-1-yl]-quinazolin-4-yl}-piperidine-1-carboxylic acid (4-pyrrolidin-1-yl-phenyl)-amide]	6 nM
O=C1CN(c2ccc3c(C4CCN(C(=O)Nc5ccc(N6CCCC6)cc5)CC4)ncnc3c2)CCN1 [Compound 183, 4-[7-(3-Oxo-piperazin-1-yl)-quinazolin-4-yl]-piperidine-1-carboxylic acid (4-pyrrolidin-1-yl-phenyl)-amide]	18 nM
CC(=O)N1CCN(c2ccc3c(C4CCN(C(=O)Nc5ccc(N6CCOCC6)cc5)CC4)ncnc3c2)CC1 [Example 141, 4-[7-(4-Acetyl-piperazin-1-yl)-quinazolin-4-yl]-piperidine-1-carboxylic acid (4-morpholin-4-yl-phenyl)-amide]	79 nM
CN1CCN(c2ccc3c(C4CCN(C(=O)Nc5ccc(N6CCCC6)cc5)CC4)ncnc3c2)CC1=O [Compound 184, 4-[7-(4-Methyl-3-oxo-piperazin-1-yl)-quinazolin-4-yl]-piperidine-1-carboxylic acid (4-pyrrolidin-1-yl-phenyl)-amide]	58 nM
CC(C)c1ccc(NC(=O)CN2CCC(c3ncnc4ccccc34)CC2)cc1 [Example 16, N-(4-Isopropyl-phenyl)-2-(4-quinazolin-4-yl-piperidin-1-yl)-acetamide]	559 nM
O=C(Nc1ccc(N2CCOCC2)cc1)N1CCC(c2ncnc3cc(N4CCC[C@@H]4CO)ccc23)CC1 [Example 132, (R)-4-[7-(2-Hydroxymethyl-pyrrolidin-1-yl)-quinazolin-4-yl]-piperidine-1-carboxylic acid (4-morpholin-4-yl-phenyl)-amide]	33 nM
CN1CCN(c2ccc3c(C4CCN(C(=O)Nc5ccc(N6CCOCC6)cc5)CC4)ncnc3c2)CC1 [Example 135, 4-[7-(4-Methyl-piperazin-1-yl)-quinazolin-4-yl]-piperidine-1-carboxylic acid (4-morpholin-4-yl-phenyl)-amide]	125 nM
CC(=O)N1CCC[C@H]1COc1ccc2c(C3CCN(C(=O)Nc4ccc(N5CCCC5)cc4)CC3)ncnc2c1 [Example 162, (S)-4-[7-(1-Acetyl-pyrrolidin-2-ylmethoxy)-quinazolin-4-yl]-piperidine-1-carboxylic acid (4-pyrrolidin-1-yl-phenyl)-amide]	46 nM
O=C(Nc1ccc(N2CCCC2)cc1)N1CCC(c2ncnc3cc(N4CCOCC4)ccc23)CC1 [Compound 181, 4-(7-Morpholin-4-yl-quinazolin-4-yl)-piperidine-1-carboxylic acid (4-pyrrolidin-1-yl-phenyl)-amide]	9 nM
